Values after ≈ are worked out from the molar mass of the structure shown.

For this test, the system named is HL-60. Nature of the test: Tested in vitro for the anticancer activity against HL-60 leukemia cells. In kind it is functional, cell-based. The following applies: Homo sapiens.

For the molecule `CC(=O)O[C@H]1C(=O)[C@@]2(C)[C@H]([C@H](OC(=O)c3ccccc3)[C@]3(O)C[C@H](OC(=O)[C@H](OP(=O)(O)OCCCN)[C@@H](NC(=O)c4ccccc4)c4ccccc4)C(C)=C1C3(C)C)[C@]1(OC(C)=O)CO[C@@H]1C[C@@H]2O`, the IC50 (commonly the concentration needed to halve the response being measured) turned out to be 4 µg/mL (≈ 4.04 µM).

`CC(=O)O[C@H]1C(=O)[C@@]2(C)[C@H]([C@H](OC(=O)c3ccccc3)[C@]3(O)C[C@H](OC(=O)[C@H](OP(=O)(O)OCCCCN)[C@@H](NC(=O)c4ccccc4)c4ccccc4)C(C)=C1C3(C)C)[C@]1(OC(C)=O)CO[C@@H]1C[C@@H]2O` came in with an IC50 of 0.3 µg/mL (≈ 0.299 µM). On to `CC(=O)O[C@H]1C(=O)[C@@]2(C)[C@H]([C@H](OC(=O)c3ccccc3)[C@]3(O)C[C@H](OC(=O)[C@H](OP(=O)(O)OCCN)[C@@H](NC(=O)c4ccccc4)c4ccccc4)C(C)=C1C3(C)C)[C@]1(OC(C)=O)CO[C@@H]1C[C@@H]2O`, for which the IC50 stood at 0.8 µg/mL (≈ 0.819 µM). As to `CC(=O)O[C@H]1C(=O)[C@@]2(C)[C@H]([C@H](OC(=O)c3ccccc3)[C@]3(O)C[C@H](OC(=O)[C@H](O)[C@@H](NC(=O)c4ccccc4)c4ccccc4)C(C)=C1C3(C)C)[C@]1(OC(C)=O)CO[C@@H]1C[C@@H]2O` [PACLITAXEL], the IC50 stood at 0.001 µg/mL (≈ 0.00117 µM).
